The values below come from PubChem BioAssay AID1963827 (Molecular Pharmacology Branch, DTP, NCI, 2024).

The assay relates to 994946-033-R-J1-PDC complex spheroid viability. Briefly: Anticancer human tumor 994946-033-R-J1-PDC patient-derived melanoma cell line growth inhibition [POLQ]. The following applies: for viability, T/C: stronger effect = lower value. As to the method:
Multicellular complex tumor spheroid response to Polymerase (POL) inhibitors (novobiocin, ART-558, RP6685) in combination with a variety of drugs and investigational agents in selected tumor cell lines
The POL inhibitors (novobiocin, ART-558, and RP6685) were evaluated both individually and in combination with standard of care and investigational anticancer small molecules within a complex spheroid model of solid tumors. . Complex spheroids include a stromal component modeled by human endothelial cells (HUVEC) and fibroblasts modeled by human mesenchymal stem cells (MSCs). The concentration ranges selected for each drug and investigational agent were based upon clinically achievable concentrations if the clinical Cmax of the agent was known.
Compounds. The drugs and investigational agents: novobiocin (NSC847541), ART-558 (NSC835418), RP-6685 (NSC848927), peposertib (NSC802822), ceralasertib (NSC780249), elimusertib (NSC800525), camonsertib (NSC841442), AZD-1390 (NSC803789), olaparib (NSC753686), talazoparib (NSC767125), rucaparib (NSC756644), sotorasib (NSC818433), MRTX-1133 (NSC836407), SN-38 (NSC673596), topotecan (NSC609699), epotoside (NSC141540), doxorubicin (NSC123127), gemcitabine (NSC613327), 5-fluorouracil (NSC19893), paclitaxel (NSC125973), vemurafenib (NSC761431), MSA-2 (NSC828583), SN-011 (NSC837082), adavosertib (NSC754352), prexasertib (NSC758257), carboplatin (NSC241240) and oxaliplatin (NSC266046), were obtained from the National Cancer Institute (NCI) Developmental Therapeutics Program Chemical Repository (21). The FDA-approved anticancer drug set is available from the Developmental Therapeutics Program at https://dtp.cancer.gov/organization/dscb/obtaining/. […] The stock solutions were prepared in dimethyl sulfoxide (DMSO, Sigma-Aldrich, St. Louis, MO, cat. D2650), except for the platinum compounds which were prepared in saline (Quality Biological, Gaithersburg, MD, cat. 114-055-101), at 800-fold the tested concentration and stored at -70 degrees C prior to their use. All drugs and investigational agents were tested over a range starting from a high concentration at or near the clinical Cmax and decreasing in half-log increments. If the clinical Cmax for an agent had not been determined, the highest concentration tested was 10 microM, except for SN-38, which was tested at a high concentration of 1 microM.
Cell Culture. All cells were maintained in an incubator at 37 degrees C and 5% CO2 with 95% humidity. The PDC lines were cultured according to standard operating procedures established by the NCI PDMR (https://pdmr.cancer.gov). Table 3 of the manuscript, lists the cell lines along with the number of the three cell types plated to form the mct-spheroids and media for tumor cell growth. After thawing, all PDC lines, except 997537-175-T-J1-PDC and 415267-285-R-J2-PDC, were cultured in Matrigel-coated flasks prepared with a working solution of 1X Ham's F-12 nutrient mix, without supplementation (Thermo Fisher Scientific, cat. 11765054), 100 U/mL penicillin-streptomycin (Thermo Fisher Scientific, cat. 15140122), and 2.5% Matrigel (Corning Inc., Corning, NY, cat. 354248) for the first three passages. The two PDC lines 997537-175-T-J1-PDC and 415267-285-R-J2-PDC were cultured on uncoated flasks. The 857933-349-R-J2-PDC line was cultured in 6C/Colon 1B media containing advanced DMEM/F-12 (Thermo Fisher Scientific, cat. 12634028), 10 mM HEPES (Thermo Fisher Scientific, cat. 15630080), 1X GlutaMAX supplement (Thermo Fisher Scientific, cat. 35050061), 0.1 mg/mL primocin (InvivoGen, San Diego, CA, cat. ant-pm-2), 10% defined fetal bovine serum, heat inactivated (HyClone Laboratories Inc., Logan, UT, cat. SH30070.03HI), 50% L-WRN conditioned media (ATCC, cat. CRL-3276), 1.25 mM N-Acetyl-L-cysteine (Sigma-Aldrich, cat. A9165), 10 mM nicotinamide (Sigma-Aldrich, cat. N0636), 1X B-27 supplement (Thermo Fisher Scientific, cat. 17504044), 1X N-2 supplement (Thermo Fisher Scientific, cat. […]

Each structure is given as a SMILES string. Several values for one entry are separate records, joined by “and”; a condition that tells them apart may be missing. Identical values can stand only once. Some results are limits rather than exact numbers.
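Note: spheroids exposed to drugs for 7 days.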

With `CC(=O)O[C@H]1C(=O)[C@@]2(C)[C@H]([C@H](OC(=O)c3ccccc3)[C@]3(O)C[C@H](OC(=O)[C@H](O)[C@@H](NC(=O)c4ccccc4)c4ccccc4)C(C)=C1C3(C)C)[C@]1(OC(C)=O)CO[C@@H]1C[C@@H]2O` + Cc1cccc(N(C)C(=O)C2C(O)CCN2c2nc(C)cc(C(F)(F)F)c2C#N)c1, the IC50 (as a rule, the concentration that inhibits the measured activity by half) is below 9.49 nM (curve of first compound, second compound 0.0316 µM); below 9.49 nM (curve of first compound, second compound 0.1 µM); below 9.49 nM (curve of first compound, second compound 0.316 µM); below 9.49 nM (curve of first compound, second compound 1 µM); below 9.49 nM (curve of first compound, second compound 3.16 µM); below 9.49 nM (curve of first compound, second compound 10 µM). For the same compound, the viability, T/C – broadly, the result in the treated group divided by that in the control group, in per cent – runs as follows: (second compound 0.0316 µM, first compound 0.00949 µM) 19.5%; (second compound 0.0316 µM, first compound 0.03 µM) 19.7%; (second compound 0.0316 µM, first compound 0.0949 µM) 20.6%; (second compound 0.0316 µM, first compound 0.3 µM) 13.5%; (second compound 0.0316 µM, first compound 0.949 µM) 9.96%; (second compound 0.0316 µM, first compound 3 µM) 8.94%. For the same compound, the viability, T/C was 22.4% (second compound 0.1 µM, first compound 0.00949 µM); 20.6% (second compound 0.1 µM, first compound 0.03 µM); 16.8% (second compound 0.1 µM, first compound 0.0949 µM); 16.8% (second compound 0.1 µM, first compound 0.3 µM); 10.6% (second compound 0.1 µM, first compound 0.949 µM); 12.3% (second compound 0.1 µM, first compound 3 µM). Besides, the viability, T/C by setting is: (second compound 0.316 µM, first compound 0.00949 µM) 16.1%; (second compound 0.316 µM, first compound 0.03 µM) 31.9%; (second compound 0.316 µM, first compound 0.0949 µM) 16.3%; (second compound 0.316 µM, first compound 0.3 µM) 15.3%; (second compound 0.316 µM, first compound 0.949 µM) 14.7%; (second compound 0.316 µM, first compound 3 µM) 14.6%. In addition, the viability, T/C reads like this: (second compound 1 µM, first compound 0.00949 µM) 23.4%; (second compound 1 µM, first compound 0.03 µM) 21.8%; (second compound 1 µM, first compound 0.0949 µM) 18.9%; (second compound 1 µM, first compound 0.3 µM) 19.6%; (second compound 1 µM, first compound 0.949 µM) 12.4%; (second compound 1 µM, first compound 3 µM) 12.7%. Moreover, the viability, T/C by setting is: (second compound 3.16 µM, first compound 0.00949 µM) 23%; (second compound 3.16 µM, first compound 0.03 µM) 24.2%; (second compound 3.16 µM, first compound 0.0949 µM) 20.3%; (second compound 3.16 µM, first compound 0.3 µM) 17.3%; (second compound 3.16 µM, first compound 0.949 µM) 14.5%; (second compound 3.16 µM, first compound 3 µM) 12.9%. The viability, T/C reads like this: (second compound 10 µM, first compound 0.00949 µM) 21.6%; (second compound 10 µM, first compound 0.03 µM) 26.2%; (second compound 10 µM, first compound 0.0949 µM) 23.9%; (second compound 10 µM, first compound 0.3 µM) 18.5%; (second compound 10 µM, first compound 0.949 µM) 15%; (second compound 10 µM, first compound 3 µM) 15.7%.

Turning to `CCc1cc2c(N3CCc4c(cc(Cn5ccnc5)cc4-c4cn(C)nc4C(F)(F)F)C3=O)ccnc2c(OC)n1`, the viability, T/C (compound 0.0316 µM) is 89.4% and 91.8% and 73.3%; the viability, T/C (compound 0.1 µM) is 85.4% and 86.5% and 82.3%; the viability, T/C (compound 0.316 µM) was 85.9% and 66.4% and 74.3%; the viability, T/C (compound 1 µM) was 88.4% and 84% and 76.2%; the viability, T/C (compound 3.16 µM) was 80.5% and 83.7% and 102%; the viability, T/C (compound 10 µM) was 76% and 62.5% and 43%. The IC50 (curve of compound) was > 10000 nM and 8110 nM.

As for `COc1cc2cc(C(=O)CCC(=O)O)sc2cc1OC`, the viability, T/C is 75.1% and 90.9% and 96.1% (compound 0.0316 µM); 84.1% and 72% and 94.5% (compound 0.1 µM); 85.4% and 111% and 76.8% (compound 0.316 µM); 88.2% and 64.1% and 113% (compound 1 µM); 96% and 104% and 75.2% (compound 3.16 µM); 95.3% and 89.2% and 61.4% (compound 10 µM). Also, the IC50 (curve of compound) is above 10000 nM.
